Results taken from US6620403B2, “In vivo chemosensitivity screen for human tumors” (priority 2000, dated 2003).
Several values for one entry are separate records, joined by “and”; a condition that tells them apart may be missing. Identical values can stand only once.

Key:
[1] = system: NSCLC; conditions: single agent, cited from earlier work
[2] = system: human NSCLC heterotransplants; test: Paclitaxel treatment and tumor response of human NSCLC heterotransplants grown subcutaneously in nude mice; format: in vivo
[3] = system: human NSCLC heterotransplants; test: as above; format: in vivo; remark: listed apart in the source
Experimental: The in vivo sensitivity to paclitaxel was studied in 34 successfully grown heterotransplants. The paclitaxel was intravenously administered to each mouse at a dosage rate of 60 mg/kg every 3 weeks. Treatment was initiated when the tumors reached a size of about 5 mm in diameter and strict standard clinical criteria (>50% tumor shrinkage) were used to define the tumor response. The heterotransplants were morphologically very similar to the original tumors. The response rate to paclitaxel was 21% (95% Cl 9-38%) which is equivalent to that reported in Phase II studies in patients with advanced NSCLC treated with paclitaxel alone. Tumor heterotransplants are thus proposed as relevant models to evaluate new potential anti-tumor agents for treatment of different cancers and to predict clinical response in individual patients. It is noted that the type of tumor utilized for evaluating chemosensitivity to anti-tumor agents comprises a range of cancers including, but not limited to, colon, head and neck, brain, melanoma, sarcoma, breast, ovarian, prostate, kidney and stomach cancers.
The fresh tumor samples were cut into 2-3 mm^3 pieces in sterile saline. Three or four pieces of non-necrotic tissue were injected subcutaneously into the lower back and anterior chest of 6 to 8 week old female Nu/Nu mice using a biomedical stainless steel implant needle and maintained under standardized conventional conditions. Animals transplanted with NSCLC tumors were checked for tumor growth over a 36 week period. Tumor formation measuring at least 5 mm in diameter was considered a positive take. Tumor formation was confirmed histologically in all cases. Temporary growth was defined as tumor formation followed by spontaneous regression before reaching a diameter of 5 mm. All other incidences were considered no growth.
The therapeutic experiments were designed as a standard Phase II clinical study with a target response rate of 20%, the only difference being that the tumor response was assessed as the average of two animals rather than in a single subject as in the case of a human Phase II trial.
The tumor grown after implantation from human to mouse was resected and cut into pieces following the same procedure used for the original tumor sample as previously described above, and transplanted subcutaneously into several animals. Tumors from the first mouse to mouse passage were allowed to grow until reaching 5 mm in diameter, at which time the animals were split into two groups: 1) control group—no treatment; and 2) treated group. The treated group was administered 60 mg/kg paclitaxel intravenously as a bolus in the tail vein. Tumor measurements were performed twice a week and the tumor volume was calculated using the formula, a×b^2/2 (a=longest diameter and b=shortest diameter). Partial tumor response was defined as an average reduction in the tumor volume of at least 50% in the animals of the treated group compared to the tumor volume measured in animals of the control group. Complete tumor response was defined as complete disappearance of the palpable tumor in both animals of the […].

[4] = First mouse to mouse passage, after second dose (day 21), 16 heterotransplants, number of responses (%)

Structure (SMILES): CC(=O)O[C@H]1C(=O)[C@@]2(C)[C@H]([C@H](OC(=O)c3ccccc3)[C@]3(O)C[C@H](OC(=O)[C@H](O)[C@@H](NC(=O)c4ccccc4)c4ccccc4)C(C)=C1C3(C)C)[C@]1(OC(C)=O)CO[C@@H]1C[C@@H]2O [paclitaxel]
- response rate in the individual Phase II studies ([1]; each of four Phase II studies, previously untreated NSCLC patients): 10% and 21% and 24% and 38%
- reported overall response rate ([1]; four Phase II studies, total of 160 previously untreated NSCLC patients): 24%
- response rate ([2]; 21 heterotransplants, second mouse to mouse passage, 95% CI 11%-52%): 29%
- Tumor Response/(%) Partial ([2]; Second passage, 21 heterotransplants tested on both first and second mouse to mouse passages, number of responses (%)): 6 (29%)
- non-responders to one dose achieving a partial response after the second dose ([3]; 12 heterotransplants that did not respond with one dose): None
- partial responses after one dose ([3]; 16 heterotransplants given two doses, 4/16, 95% CI 7%-52%): 25%
- partial responses converted into complete response after two doses ([3]; 16 heterotransplants, second dose on day 21, number out of 4 partial responses): Three
- effect of second dose on overall response rate ([3]; 16 heterotransplants, second dose on day 21 versus single dose): did not change the overall response rate
- response rate ([3]; 21 heterotransplants, first mouse to mouse passage, 95% CI 8%-47%): 24%
- overall response rate ([3]; 34 heterotransplants, first mouse to mouse passage, one single dose 60 mg/kg i.v., 95% CI 9-38%): 21%
- Tumor Response/(%) Complete ([3]; Adenocarcinoma, first mouse to mouse passage, 11 heterotransplants, single dose 60 mg/kg i.v.): 0
- Tumor Response/(%) Partial ([3]; Adenocarcinoma, first mouse to mouse passage, 11 heterotransplants, single dose 60 mg/kg i.v., number of responses (%)): 1 (9%)
- Tumor Response/(%) Complete ([3]; First mouse to mouse passage, after first dose, 16 heterotransplants): 0
- Tumor Response/(%) Partial ([3]; First mouse to mouse passage, after first dose, 16 heterotransplants, number of responses (%)): 4 (24%)
- Tumor Response/(%) Complete [3, 4]: 3 (18%)
- Tumor Response/(%) Partial [3, 4]: 1 (6%)
- Tumor Response/(%) Complete ([3]; First passage, 21 heterotransplants tested on both first and second mouse to mouse passages): 0
- Tumor Response/(%) Partial ([3]; First passage, 21 heterotransplants tested on both first and second mouse to mouse passages, number of responses (%)): 5 (24%)
- Tumor Response/(%) Partial ([3]; Neuroendocrine carcinoma, first mouse to mouse passage, 1 heterotransplant, single dose 60 mg/kg i.v., number of responses): 1
- Tumor Response/(%) Complete ([3]; Second passage, 21 heterotransplants tested on both first and second mouse to mouse passages): 0
- Tumor Response/(%) Complete ([3]; Squamous carcinoma, first mouse to mouse passage, 20 heterotransplants, single dose 60 mg/kg i.v.): 0
- Tumor Response/(%) Partial ([3]; Squamous carcinoma, first mouse to mouse passage, 20 heterotransplants, single dose 60 mg/kg i.v., number of responses (%)): 4 (20%)
- Tumor Response/(%) Complete ([3]; TOTAL, first mouse to mouse passage, 34 heterotransplants, single dose 60 mg/kg i.v., number of responses (%)): 0 (0%)
- Tumor Response/(%) Partial ([3]; TOTAL, first mouse to mouse passage, 34 heterotransplants, single dose 60 mg/kg i.v., number of responses (%), 60 mg/kg): 7
- Tumor Response/(%) Partial ([3]; TOTAL, first mouse to mouse passage, 34 heterotransplants, single dose 60 mg/kg i.v., number of responses (%), listed as Paclitaxel, 60 mg/kg): 7 (21%)
- Tumor Response/(%) Partial ([3]; Undifferentiated carcinoma, first mouse to mouse passage, 2 heterotransplants, single dose 60 mg/kg i.v., number of responses): 1
